Results on one compound are retold here after patent publication US8048874B2, “Beta-lactamyl phenylalanine, cysteine, and serine vasopressin antagonists” (Azevan Pharmaceuticals, Inc., priority 2005, dated 2011).

One test deals with T1, human V1a receptors (Homo sapiens, UniProt P37288).
T1 construct: expressed in transfected cells; host or cells: CHO cells
As to the kind of experiment: Human vasopressin V1a cell-based receptor binding assay (3H-AVP competition). As for the experimental part: Human or rat vasopression V1a, V1b, and/or V2 cell-based receptor binding assay. The V1a, V1b, and/or V2 cell lines (cells expressing either the human or rat V1a, V1b, and/or V2 receptors) were grown in alpha-MEM medium supplemented with 10% fetal bovine serum and 250 ug/ml G418 (Gibco, Grand Island, N.Y.) in 75 cm^2 flask. For competitive binding assay, hV1b cells were dissociated with enzyme-free, PBS based cell dissociation solution (Specialty Media, Phillipursburg, N.J.), following the manufacturer's protocol. Cells were plated into 12-well culture plates at a rate of one flask to 18 plates (rate should be adjusted according to the extent of confluency), and maintained in culture for 2-3 days. Culture medium was then removed, cells were washed once with 2 ml binding buffer (25 mM Hepes, 0.25% BSA, 1×DMEM, PH=7.0) at room temperature. To each well, 990 ul binding buffer containing 1 nM ^3H-AVP was added, and followed by the addition of 10 ul series diluted testing compounds or cold AVP, all dissolved in DMSO. […] Cells were incubated for 30 min at 37° C. in a moisturized incubator. Assay mixture was then removed and each well was washed three times with PBS (pH=7.4). […] Samples were counted in a liquid scintillation counter (Beckman LS3801). IC50 and Ki values were calculated using Prism Curve fitting software. […]

The target of another test is T2, human V1b receptors (Homo sapiens, UniProt P47901).
T2 construct: expressed in transfected cells
T2 sequence (P47901 1-424): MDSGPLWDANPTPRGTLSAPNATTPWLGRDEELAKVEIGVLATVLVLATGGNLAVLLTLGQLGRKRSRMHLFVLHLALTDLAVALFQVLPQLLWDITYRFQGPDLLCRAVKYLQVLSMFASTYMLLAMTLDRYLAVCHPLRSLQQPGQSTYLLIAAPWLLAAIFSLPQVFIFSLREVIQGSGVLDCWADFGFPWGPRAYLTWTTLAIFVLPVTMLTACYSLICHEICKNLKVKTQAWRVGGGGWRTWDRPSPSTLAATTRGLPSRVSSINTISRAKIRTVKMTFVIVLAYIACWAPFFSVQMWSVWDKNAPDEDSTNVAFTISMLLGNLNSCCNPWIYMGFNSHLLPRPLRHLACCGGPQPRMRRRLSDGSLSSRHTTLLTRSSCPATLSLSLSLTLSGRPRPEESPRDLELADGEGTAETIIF
The experiment in a line: Human vasopressin V1b cell-based receptor binding assay (3H-AVP competition). As to conditions: cells expressing human V1b receptor, 1 nM 3H-AVP. From the text: Human vasopression VIb receptor-expressing cells. Human vasopressin receptor 1B (HV1B) cDNA (see, Lolait et al., “Extrapituitary expression of the rat V1b vasopressin receptor gene” Proc. Natl. Acad. Sci. USA. 92:6783-7 (1995); de Keyzer et al., “Cloning and characterization of the human V3(V1b) pituitary vasopressin receptor” FEBS Lett. 356:215-20 (1994); Sugimoto et al., “Molecular cloning and functional expression of a cDNA encoding the human V1b vasopressin receptor” J. Biol. Chem. 269:27088-92 (1994)) was inserted into a mammalian cell expression vector PCI-neo (Promega) at EcoR1 site. The recombinant plasmid carrying HV1B cDNA was identified from transformed E. Coli clones and used for the transfection of Chinese hamster ovary cell (CHO-K1, ATCC). Two micrograms of HV1B receptor DNA was introduced into 10^5 CHO cells cultured in 6-well plate, using Fugene-6 mediated transfection technique (Boehringer Mannheim). Twenty-four hrs post transfection, Cells were then cultured under selection of G-418 (0.25 mg/ml) supplemented to the culture medium. Three days later, limited dilution was carried out to obtain single cell clones in 96-well plates. […]
Human or rat vasopression V1a, V1b, and/or V2 cell-based receptor binding assay. […] Samples were counted in a liquid scintillation counter (Beckman LS3801). IC50 and Ki values were calculated using Prism Curve fitting software. […]

T1 sequence (P37288 whole entry): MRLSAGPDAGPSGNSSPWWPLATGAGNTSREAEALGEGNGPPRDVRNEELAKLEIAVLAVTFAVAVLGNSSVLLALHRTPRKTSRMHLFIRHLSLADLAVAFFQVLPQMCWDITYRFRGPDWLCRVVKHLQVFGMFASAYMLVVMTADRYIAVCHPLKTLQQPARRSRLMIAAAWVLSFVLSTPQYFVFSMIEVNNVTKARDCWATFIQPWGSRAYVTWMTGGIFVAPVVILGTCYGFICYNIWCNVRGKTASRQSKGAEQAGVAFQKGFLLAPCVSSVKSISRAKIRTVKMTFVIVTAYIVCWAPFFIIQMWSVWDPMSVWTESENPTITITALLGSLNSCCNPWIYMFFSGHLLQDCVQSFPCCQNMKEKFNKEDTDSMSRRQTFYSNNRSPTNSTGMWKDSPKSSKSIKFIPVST

For the compound `O=C(C(CSCc1ccccc1)N1C(=O)C(N2C(=O)OCC2c2ccccc2)C1C=Cc1ccccc1)N1CCC(CCN2CCCCC2)CC1` [Example 9B, (2S)-(Benzylthiomethyl)-2-[3(S)-(4(S)-phenyloxazolidin-2-on-3-yl)-4(R)-(2-styryl)azetidin-2-on-1-yl]acetic acid N-[4-[2-(piperid-1-yl)ethyl]piperidin-1-yl]amide], the Ki on human V1a receptors (FIG. 1, competitive binding assay in CHO cells transfected with human V1a receptor, read-out: human V1b binding affinity (Ki)) was found to be 0.07 nM; on human V1b receptors (read-out: Human V1b Binding Affinity (Ki (μM))), 0.69 µM. The IC50 on human V1a receptors (cells expressing human V1a receptor, 1 nM 3H-AVP, read-out: Human V1a Binding Affinity (IC50 (nM))) was 0.11 nM; at human V1b receptors (read-out: Human V1b Binding Affinity (IC50 (μM))), 1.1 µM.

Usually Ki stands for a measure of affinity in units of concentration, obtained from inhibition or displacement. What is called IC50 is the concentration that gives 50% inhibition.
